Measurements from US20240166693A1, “METHODS AND COMPOUNDS FOR MODULATING MYOTONIC DYSTROPY 1” (Design Therapeutics, Inc., priority 2020, published 2024).
Where two headings read alike, the source gives them in different places.

System: Myotonic Dystrophy 1 affected patient fibroblasts (Coriell GM04602; 1600 CTG repeats)
Assay: DM1 foci reduction assay (CAG10-Cy3 FISH, average foci per nucleus)
Type: cell-based
Conditions: Homo sapiens, Fibroblast
Procedure: DM1 foci reduction assay methods: Myotonic Dystrophy 1 affected patient fibroblasts (Coriell GM04602; 1600 CTG repeats) and wild type fibroblasts (Coriell GM07492; control line) were cultured separately in Gibco DMEM (1×)+4.5 g/L D-Glucose+L-Glutamine+110 mg/L Sodium Pyruvate, supplemented with 10% FBS and 1× Pen/Strep. Cells were maintained in incubator at 37° C. and 5% CO2 with media refresh every 48-72 hours.
At 90-95% confluency, both cell lines were harvested using Trypl-E then pelleted at 500×g for 5 minutes and were resuspended in media. DM1 fibroblasts were seeded in Agilent 96 well black plates at a density of 5,000 cells/well in 200 μL media; 8 wells were reserved for control fibroblasts. Plates were returned to incubator for 24 hours at 37° C. and 5% CO2.
Compounds were diluted from 10 mM stock to 1 mM in DMSO, then diluted once more to 6 μM (2× concentration) in media. Media was removed from all plates and cells were replenished with 100 μL media. Cells were treated in 8-point dose response, 1:3 fold dilution, 3 μM top dose via addition of 100 μL of 6 μM (2× concentration) compound to the 100 μL media with cells. Plates were returned to incubator for 48-hour time-course experiment at 37° C. and 5% CO2.
Following treatment, compounds were removed, and plates were washed with PBS, then cells were fixed in 75 μL 4% PFA solution for 20 minutes at room temperature. Plates were washed twice with PBS and twice with cold 70% ethanol before permeabilization with 250 μL cold 70% ethanol for 24-72 hours at −20° C.
After permeabilization, plates were washed once with a 30% formamide and 2×SSC buffer and rehydrated in that buffer for 15 minutes at room temperature. Cells were incubated overnight at 37° C. in 75 μL of a hybridization solution containing 30% formamide, 2×SSC, 25 mg/mL dextran sulfate, 2.5 mg/mL BSA, 0.2 μg/mL Herring sperm DNA, 2 mM vanadyl-ribonucleoside complex, and 5 nM CAG10-Cy3 probe.
Plates were washed once with 30% formamide in 2×SSC buffer, then twice with the buffer for 30 minutes at 37° C., 300 RPM in an incubating plate shaker. Cells were stained with 75 μL of 2.5 μg/mL DAPI in PBS for 5 minutes at room temperature. Plates were then washed twice with PBS and stored in 250 μL PBS. Plates were sealed with adhesive foil and wiped down with 70% ethanol.
Cells were imaged on a Cytation5 with a 20× objective sampling from 4 areas of each well. Nuclei were captured under DAPI channel and foci under RFP channel. Plates were analyzed on an average foci per nucleus per well basis.

[1] = 48 h, read-out: Foci Reduction in Fibroblast EC50, 48 h (nM)
[2] = DM1 fibroblasts, 48 h treatment, 8-point dose response, 3 μM top dose, read-out: Foci Reduction in Fibroblast EC50, 48 h

Row | SMILES | EC50 [1] | EC50 [2]
1 | CC(C)C[C@H](NC(=O)[C@H](C)NC(=O)[C@H](Cc1ccccc1)NC(=O)c1ccc(C(C)(C)C)cc1)C(=O)N[C@@H](CCCCN(C)C1CC2CCC1C2)C(=O)N[C@@H](CO)C(=O)NCCOCCOCCOCCOCCOCCNC(=O)c1cc(NC(=O)c2cc(NC(=O)c3nc(NC(=O)c4cc(NC(=O)[C@@H](N)CCNC(=O)c5nc(NC(=O)CCNC(=O)c6cc(NC(=O)c7nccn7C)cn6C)cn5C)cn4C)cn3C)cn2C)cn1C (stereo partly drawn) [Compound 84] | > 500 nM | 
2 | CCN(CC)CCCC[C@H](NC(=O)[C@H](CC(C)C)NC(=O)[C@H](C)NC(=O)[C@H](Cc1ccccc1)NC(=O)c1ccc(C)cc1)C(=O)N[C@@H](CO)C(=O)NCCOCCOCCOCCOCCOCCNC(=O)CCNC(=O)c1nc(NC(=O)c2cc(NC(=O)CCNC(=O)c3nc(NC(=O)CCCNC(=O)c4cc(NC(=O)c5nc(NC(=O)CCNC(=O)c6cc(NC(=O)c7nccn7C)cn6C)cn5C)cn4C)cn3C)cn2C)cn1C [Compound 85] | < 100 nM | 
3 | CCN(CC)CCCC[C@H](NC(=O)[C@H](CC(C)C)NC(=O)[C@H](C)NC(=O)[C@H](Cc1ccccc1)NC(=O)c1ccccc1C)C(=O)N[C@@H](CO)C(=O)NCCOCCOCCOCCOCCOCCNC(=O)CCNC(=O)c1nc(NC(=O)c2cc(NC(=O)CCNC(=O)c3nc(NC(=O)CCCNC(=O)c4cc(NC(=O)c5nc(NC(=O)CCNC(=O)c6cc(NC(=O)c7nccn7C)cn6C)cn5C)cn4C)cn3C)cn2C)cn1C [Compound 86] | < 100 nM | 
4 | CCN(CC)CCCC[C@H](NC(=O)[C@H](CC(C)C)NC(=O)[C@H](C)NC(=O)[C@H](Cc1ccccc1)NC(=O)c1ccccc1)C(=O)N[C@@H](CO)C(=O)NCCOCCOCCOCCOCCOCCNC(=O)CCNC(=O)c1nc(NC(=O)c2cc(NC(=O)CCNC(=O)c3nc(NC(=O)CCCNC(=O)c4cc(NC(=O)c5nc(NC(=O)CCNC(=O)c6cc(NC(=O)c7nccn7C)cn6C)cn5C)cn4C)cn3C)cn2C)cn1C [Compound 87] | < 100 nM | 
5 | CCN(CC)CCCC[C@H](NC(=O)[C@H](CC(C)C)NC(=O)[C@H](C)NC(=O)[C@H](Cc1ccccc1)NC(=O)c1ccccc1C)C(=O)N[C@@H](CO)C(=O)NCCOCCOCCOCCOCCOCCNC(=O)c1cc(NC(=O)c2cc(NC(=O)c3nc(NC(=O)c4cc(NC(=O)[C@@H](N)CCNC(=O)c5nc(NC(=O)CCNC(=O)c6cc(NC(=O)c7nccn7C)cn6C)cn5C)cn4C)cn3C)cn2C)cn1C [Compound 89] | > 500 nM | 
6 | CCN(CC)CCCC[C@H](NC(=O)[C@H](CC(C)C)NC(=O)[C@H](C)NC(=O)[C@H](Cc1ccccc1)NC(=O)c1ccccc1)C(=O)N[C@@H](CO)C(=O)NCCOCCOCCOCCOCCOCCNC(=O)c1cc(NC(=O)c2cc(NC(=O)c3nc(NC(=O)c4cc(NC(=O)[C@@H](N)CCNC(=O)c5nc(NC(=O)CCNC(=O)c6cc(NC(=O)c7nccn7C)cn6C)cn5C)cn4C)cn3C)cn2C)cn1C [Compound 90] | > 500 nM | 
7 | COc1c(OCCOCCOCCOCCOCCOCCNC(=O)CCNC(=O)c2nc(NC(=O)c3cc(NC(=O)CCNC(=O)c4nc(NC(=O)CCCNC(=O)c5cc(NC(=O)c6nc(NC(=O)CCNC(=O)c7cc(NC(=O)c8nccn8C)cn7C)cn6C)cn5C)cn4C)cn3C)cn2C)cccc1C(=O)N1CCN(C(=O)COc2cc(C)cc(C)c2)CC1 [Compound 91] |  | > 500 nM
8 | COc1c(OCCOCCOCCOCCOCCOCCNC(=O)CCNC(=O)c2nc(NC(=O)c3cc(NC(=O)CCNC(=O)c4nc(NC(=O)CCCNC(=O)c5cc(NC(=O)c6nc(NC(=O)CCNC(=O)c7cc(NC(=O)c8nccn8C)cn7C)cn6C)cn5C)cn4C)cn3C)cn2C)cccc1C(=O)N1CCN(C(=O)COc2cc(C)c(N)c(C)c2)CC1 [Compound 92] |  | > 500 nM
9 | COc1c(OCCOCCOCCOCCOCCOCCNC(=O)CCNC(=O)c2nc(NC(=O)c3cc(NC(=O)CCNC(=O)c4nc(NC(=O)CCCNC(=O)c5cc(NC(=O)c6nc(NC(=O)CCNC(=O)c7cc(NC(=O)c8nccn8C)cn7C)cn6C)cn5C)cn4C)cn3C)cn2C)cccc1C(=O)N1CCN(C(=O)COc2cc(C)c(NC(N)=O)c(C)c2)CC1 [Compound 93] |  | > 500 nM
